Assay results as given in the NIST ThermoML archive (doi:10.1021/acs.jced.5b00105).

Test: xn = mol fraction of the nth substance listed
Conditions: for surface tension liquid-gas: Drop volume; for viscosity / mass density: 100 kPa, Liquid; for viscosity: Concentric cylinders viscometry; for mass density: Vibrating tube method

CC1CCCCC1 [methylcyclohexane] + CC(C)CC(C)(C)C
Conditions | mass density [kg/m3] | surface tension liquid-gas [mN/m] | viscosity [mPa·s]
293.15 K, x1 = 0.0999 | – | 19.34 | –
293.15 K, x1 = 0.1012 | 698.32 | – | 0.532
293.15 K, x1 = 0.1999 | – | 19.77 | –
293.15 K, x1 = 0.2003 | 704.87 | – | 0.546
293.15 K, x1 = 0.2997 | – | 20.13 | –
293.15 K, x1 = 0.3001 | 711.73 | – | 0.562
293.15 K, x1 = 0.4 | – | 20.54 | –
293.15 K, x1 = 0.4019 | 719.01 | – | 0.58
293.15 K, x1 = 0.5 | – | 20.99 | –
293.15 K, x1 = 0.5008 | 726.4 | – | 0.599
293.15 K, x1 = 0.6 | 734.15 | 21.52 | 0.62
293.15 K, x1 = 0.6998 | 742.32 | – | 0.644
293.15 K, x1 = 0.7001 | – | 22.1 | –
293.15 K, x1 = 0.7999 | – | 22.64 | –
293.15 K, x1 = 0.8 | 750.91 | – | 0.671
293.15 K, x1 = 0.9 | 759.88 | 23.29 | 0.701
293.15 K, x1 = 1 | 769.35 | 23.87 | 0.735
298.15 K, x1 = 0.0999 | – | 18.75 | –
298.15 K, x1 = 0.1012 | 694.22 | – | 0.506
298.15 K, x1 = 0.1999 | – | 19.1 | –
298.15 K, x1 = 0.2003 | 700.73 | – | 0.519
298.15 K, x1 = 0.2997 | – | 19.44 | –
298.15 K, x1 = 0.3001 | 707.58 | – | 0.533
298.15 K, x1 = 0.4 | – | 19.84 | –
298.15 K, x1 = 0.4019 | 714.85 | – | 0.549
298.15 K, x1 = 0.5 | – | 20.2 | –
298.15 K, x1 = 0.5008 | 722.23 | – | 0.566
298.15 K, x1 = 0.6 | 729.96 | 20.69 | 0.585
298.15 K, x1 = 0.6998 | 738.11 | – | 0.606
298.15 K, x1 = 0.7001 | – | 21.26 | –
298.15 K, x1 = 0.7999 | – | 21.81 | –
298.15 K, x1 = 0.8 | 746.67 | – | 0.631
298.15 K, x1 = 0.9 | 755.61 | 22.41 | 0.66
298.15 K, x1 = 1 | 765.05 | 23.02 | 0.692
303.15 K, x1 = 0.0999 | – | 18.32 | –
303.15 K, x1 = 0.1012 | 690.06 | – | 0.482
303.15 K, x1 = 0.1999 | – | 18.62 | –
303.15 K, x1 = 0.2003 | 696.57 | – | 0.494
303.15 K, x1 = 0.2997 | – | 18.99 | –
303.15 K, x1 = 0.3001 | 703.4 | – | 0.507
303.15 K, x1 = 0.4 | – | 19.38 | –
303.15 K, x1 = 0.4019 | 710.66 | – | 0.521
303.15 K, x1 = 0.5 | – | 19.73 | –
303.15 K, x1 = 0.5008 | 718.01 | – | 0.537
303.15 K, x1 = 0.6 | 725.72 | 20.21 | 0.554
303.15 K, x1 = 0.6998 | 733.85 | – | 0.573
303.15 K, x1 = 0.7001 | – | 20.72 | –
303.15 K, x1 = 0.7999 | – | 21.32 | –
303.15 K, x1 = 0.8 | 742.38 | – | 0.595
303.15 K, x1 = 0.9 | 751.3 | 21.92 | 0.621
303.15 K, x1 = 1 | 760.71 | 22.55 | 0.651
308.15 K, x1 = 0.0999 | – | 17.84 | –
308.15 K, x1 = 0.1012 | 685.89 | – | 0.46
308.15 K, x1 = 0.1999 | – | 18.12 | –
308.15 K, x1 = 0.2003 | 692.38 | – | 0.471
308.15 K, x1 = 0.2997 | – | 18.43 | –
308.15 K, x1 = 0.3001 | 699.2 | – | 0.483
308.15 K, x1 = 0.4 | – | 18.8 | –
308.15 K, x1 = 0.4019 | 706.44 | – | 0.496
308.15 K, x1 = 0.5 | – | 19.19 | –
308.15 K, x1 = 0.5008 | 713.78 | – | 0.51
308.15 K, x1 = 0.6 | 721.47 | 19.64 | 0.525
308.15 K, x1 = 0.6998 | 729.57 | – | 0.543
308.15 K, x1 = 0.7001 | – | 20.23 | –
308.15 K, x1 = 0.7999 | – | 20.75 | –
308.15 K, x1 = 0.8 | 738.08 | – | 0.564
308.15 K, x1 = 0.9 | 746.98 | 21.44 | 0.587
308.15 K, x1 = 1 | 756.37 | 22.12 | 0.615
313.15 K, x1 = 0.1012 | 681.69 | – | 0.44
313.15 K, x1 = 0.2003 | 688.17 | – | 0.45
313.15 K, x1 = 0.3001 | 694.97 | – | 0.461
313.15 K, x1 = 0.4019 | 702.2 | – | 0.473
313.15 K, x1 = 0.5008 | 709.52 | – | 0.486
313.15 K, x1 = 0.6 | 717.19 | – | 0.5
313.15 K, x1 = 0.6998 | 725.27 | – | 0.516
313.15 K, x1 = 0.8 | 733.75 | – | 0.535
313.15 K, x1 = 0.9 | 742.63 | – | 0.556
313.15 K, x1 = 1 | 752 | – | 0.58
318.15 K, x1 = 0.1012 | 677.34 | – | 0.422
318.15 K, x1 = 0.2003 | 683.85 | – | 0.432
318.15 K, x1 = 0.3001 | 690.64 | – | 0.443
318.15 K, x1 = 0.4019 | 697.75 | – | 0.453
318.15 K, x1 = 0.5008 | 705.13 | – | 0.465
318.15 K, x1 = 0.6 | 712.85 | – | 0.478
318.15 K, x1 = 0.6998 | 720.93 | – | 0.493
318.15 K, x1 = 0.8 | 729.36 | – | 0.509
318.15 K, x1 = 0.9 | 738.24 | – | 0.528
318.15 K, x1 = 1 | 747.58 | – | 0.549
323.15 K, x1 = 0.1012 | 673.08 | – | 0.406
323.15 K, x1 = 0.2003 | 679.58 | – | 0.415
323.15 K, x1 = 0.3001 | 686.35 | – | 0.426
323.15 K, x1 = 0.4019 | 693.44 | – | 0.435
323.15 K, x1 = 0.5008 | 700.81 | – | 0.446
323.15 K, x1 = 0.6 | 708.52 | – | 0.458
323.15 K, x1 = 0.6998 | 716.59 | – | 0.471
323.15 K, x1 = 0.8 | 725.08 | – | 0.486
323.15 K, x1 = 0.9 | 733.86 | – | 0.503
323.15 K, x1 = 1 | 743.17 | – | 0.522
333.15 K, x1 = 0.1012 | 664.46 | – | 0.378
333.15 K, x1 = 0.2003 | 670.92 | – | 0.386
333.15 K, x1 = 0.3001 | 677.66 | – | 0.395
333.15 K, x1 = 0.4019 | 684.72 | – | 0.402
333.15 K, x1 = 0.5008 | 692.07 | – | 0.411
333.15 K, x1 = 0.6 | 699.74 | – | 0.421
333.15 K, x1 = 0.6998 | 707.79 | – | 0.433
333.15 K, x1 = 0.8 | 716.25 | – | 0.445
333.15 K, x1 = 0.9 | 725.03 | – | 0.46
333.15 K, x1 = 1 | 734.29 | – | 0.476
343.15 K, x1 = 0.1012 | 655.69 | – | 0.355
343.15 K, x1 = 0.2003 | 662.12 | – | 0.361
343.15 K, x1 = 0.3001 | 668.84 | – | 0.368
343.15 K, x1 = 0.4019 | 675.87 | – | 0.375
343.15 K, x1 = 0.5008 | 683.23 | – | 0.383
343.15 K, x1 = 0.6 | 690.9 | – | 0.391
343.15 K, x1 = 0.6998 | 698.9 | – | 0.401
343.15 K, x1 = 0.8 | 707.33 | – | 0.411
343.15 K, x1 = 0.9 | 716.08 | – | 0.424
343.15 K, x1 = 1 | 725.31 | – | 0.439
